# Test results reported in patent publication US20080003215A1, “Use of pre-dissolved pristinamycin-type and polyether ionophore type antimicrobial agents in the production of ethanol” (priority 2006, published 2008).
# Like-named read-outs stand apart in the source and are kept apart here.
# How the values were obtained:
# [1] = Rate of dissolution of powdered virginiamycin in stirred water; type: physicochemical; details: 0.1 gram of 5.2 to 10 micron average particle size powder in 4 liters of water, continuously stirred
# Text: The solubility of monensin, virginiamycin, and similar pristinamycin-type antimicrobial agents and polyether ionophore-type antimicrobial agents in water is very low. Much more important, however, is the rate of dissolution of small granular pristinamycin-type antimicrobial agents and polyether ionophore-type antimicrobial agents in water. A 0.1 gram sample of a 5.2 to 10 micron average particle size virginiamycin was placed in a beaker with 4 liters of water, and the composition was continuously stirred. The presence of undissolved crystals was very evident.
# [2] = tested on: consortium of 6 Lactobacilli spp cultures; test: Corn mash fermentation without yeast, inoculated with Lactobacillus consortium, well-mixed or poorly-mixed fermentors; type: cell-based, Lactobacillus sp
# Text: The purpose of this experiment is to determine the efficacy of virginiamycin in three forms (DMSO-solubilized virginiamycin, Belgium powdered virginiamycin, and Brazilian powdered virginiamycin) in real corn mash fermentations against a consortium of Lactobacillus sp bacteria. No yeasts will be added. The efficacy of these forms of virginiamycin will be further tested in fermentors that will be properly (continuously) mixed and in fermentors that have improper mixing—simulating more closely the fermentor mixing conditions seen in field ethanol plants.
# The first step in testing was the preparation of corn mash (i.e., Gelatinization, Liquefaction, and Saccharification). […]
# The mash temperature was then decreased to 60° C. at which point 2 L water and 200 ml G-Zyme™ 480 Ethanol glucoamylase (available from Genencor, Rochester, N.Y.) were added. […] No bacterial contamination was detected in any test incubated mashes.
# For each 7.6 L sterile container of mash, a 60 g aliquot was removed and divided into two 30 g sub-samples within 50 ml centrifuge tubes. […] The specific gravity of each subsample was then determined using a digital density meter (DMA-45; Anton Paar KG, Graz, Austria) which was temperature regulated to 4° C. If the readings on the density meter were off-scale, then a precise dilution of the subsamples were done and then re-read in the density meter. […]
# [3] = cited from earlier work
# [4] = Solubility of virginiamycin in several solvents (applicant's determination); type: physicochemical
# Description: The solubility of virginiamycin in several solvents were determined. Each of these solvents can be useful in solubilized organic liquid comprising antimicrobial material, an emulsion of the same in water, or in both. […] Such a solution is stable, pumpable, and useful not only for treatments of ethanol-producing facilities but for a number of other uses where virginiamycin is used.
# [5] = solvent: 50% NMP/50% Ethyl lactate
substance,measurement,setting,value
virginiamycin,Time until only a few crystals remained visible (dissolution),[1],on the order of an hour
same,Lactobacilli killed,"[2]; pre-solubilized agent, within 6 hours",at least 90%
same,Lactobacillus count,"[2]; well mixed fermentors (150 RPM), 1 ppm virginiamycin, inoculum 5E5 CFU/ml, up to 48 h",≤ 1 E6 CFU/ml
same,"Solubility (literature data, ""virginiamycin-type"" compounds)",[3]; solvent: 1% ethanol in water,0.002 mg/mL
same,"Solubility (literature data, ""virginiamycin-type"" compounds)",[3]; solvent: DMSO,> 100 mg/mL
same,"Solubility (literature data, ""virginiamycin-type"" compounds)","[3]; solvent: acetone, disproportionate solubilities for Type A and Type B",~190 mg/mL
same,"Solubility (literature data, ""virginiamycin-type"" compounds)",[3]; solvent: amylacetate,> 4 mg/mL
same,"Solubility (literature data, ""virginiamycin-type"" compounds)",[3]; solvent: benzene,> 3 mg/mL
same,"Solubility (literature data, ""virginiamycin-type"" compounds)",[3]; solvent: butanol,> 10 mg/mL
same,"Solubility (literature data, ""virginiamycin-type"" compounds)",[3]; solvent: carbon tetrachloride,0.02 mg/mL
same,"Solubility (literature data, ""virginiamycin-type"" compounds)",[3]; solvent: chloroform,150 mg/mL
same,"Solubility (literature data, ""virginiamycin-type"" compounds)",[3]; solvent: dimethylformamide,200 mg/mL
same,Virginiamycin that can be dissolved (literature data),[3]; solvent: dimethylformamide,200 grams
same,Virginiamycin that can be dissolved (literature data),[3]; solvent: dimethylsulfoxide,200 grams
same,"Solubility (literature data, ""virginiamycin-type"" compounds)",[3]; solvent: dioxane,130 mg/mL
same,"Solubility (literature data, ""virginiamycin-type"" compounds)",[3]; solvent: ethanol,70 mg/mL
same,"Solubility (literature data, ""virginiamycin-type"" compounds)","[3]; solvent: ether, disproportionate solubilities for Type A and Type B",11 mg/mL
same,"Solubility (literature data, ""virginiamycin-type"" compounds)","[3]; solvent: ethyl acetate, disproportionate solubilities for Type A and Type B",~205 mg/mL
same,"Solubility (literature data, ""virginiamycin-type"" compounds)",[3]; solvent: hexane,0.2 mg/mL
same,"Solubility (literature data, ""virginiamycin-type"" compounds)",[3]; solvent: isopropanol,> 10 mg/mL
same,"Solubility (literature data, ""virginiamycin-type"" compounds)",[3]; solvent: methanol,25 mg/mL
same,"Solubility (literature data, ""virginiamycin-type"" compounds)",[3]; solvent: methylethylketone,35 mg/mL
same,"Solubility (literature data, ""virginiamycin-type"" compounds)","[3]; solvent: toluene, disproportionate solubilities for Type A and Type B",82 mg/mL
same,"Solubility (literature data, ""virginiamycin-type"" compounds)",[3]; solvent: water,0.0002 mg/mL
same,Solubility in water,"[3]; water, background statement",0.0001 grams/l
same,Concentration that can be dissolved,"[4]; ethanol with water, at least 75% by weight ethanol (balance water)",~70000 µg/mL
same,Virginiamycin solubility in grams per liter of solvent,[4]; solvent: 2-ethyl hexyl lactate,24 grams per liter
same,Virginiamycin solubility in grams per liter of solvent,"[4]; solvent: 2-ethyl hexyl lactate, listed as Virginiamycin",˜24 grams per liter
same,Virginiamycin solubility in grams per liter of solvent,[4]; solvent: 50% NMP/50% DMSO,˜335 grams per liter
same,Gel formation of virginiamycin solution,[4]; [5],forms a hard gel at 280
same,Virginiamycin solubility in grams per liter of solvent,[4]; [5],<200 grams per liter
same,Virginiamycin solubility in grams per liter of solvent,[4]; solvent: 70% ethanol/30% water,˜70 grams per liter
same,Virginiamycin solubility in grams per liter of solvent,[4]; solvent: Dimethylsulfoxide (DMSO),˜270 grams per liter
same,Virginiamycin solubility in grams per liter of solvent,[4]; solvent: Ethyl lactate,about 92 grams per liter
same,Virginiamycin solubility in grams per liter of solvent,"[4]; solvent: Ethyl lactate, listed as Virginiamycin",˜92 grams per liter
same,Virginiamycin solubility in grams per liter of solvent,[4]; solvent: Methyl soyate ester,<1 gram per liter
same,Virginiamycin solubility in grams per liter of solvent,"[4]; solvent: N,N-dimethylcapramide",˜70 grams per liter
same,Virginiamycin solubility in grams per liter of solvent,[4]; solvent: N-methylpyrrolidone (NMP),˜260 grams per liter
same,Amount of virginiamycin dissolved per liter,"[4]; solvent: NMP, over a short period of time",about 290 grams per liter
same,Virginiamycin solubility in grams per liter of solvent,[4]; solvent: tetrahydrofurfuryl alcohol,<160 grams per liter
